These results are taken from patent publication US20100099770A1, “METHOD FOR TREATING DIABETIC PERIPHERAL NEUROPATHIC PAIN” (SCHWARZ PHARMA AG, priority 2001, published 2010).

“And” between values parts separate entries of the source, which are not always exact repeats. Equal values may be shown once. Marks after values point to notes of the source that are not given here.

The test system of assay [1] is Carrageenan-induced mechanical hyperalgesia. Put plainly: Carrageenan-induced mechanical hyperalgesia, paw pressure (Randall-Sellito) test. Type of assay: in vivo, rats. The following applies: for nociceptive threshold: inflamed paw, 3 h after carrageenan. On the procedure: Carrageenan-induced mechanical hyperalgesia in rats was induced by subplantar injection of a 0.1 ml of a 2% carrageenan suspension and measured 3 h afterwards by the paw pressure (Randall-Sellito) test.
(§1) Drugs and experimental design: SPM 927 and GBP were suspended in 1% methylcellulose and administered i.p. at doses of 10 mg/kg, 20 mg/kg and 40 mg/kg. Pre-treatment time was 30 min before pain measurement. One group of animals served as controls and consequently received an injection of solvent (10 ml/kg) and another group of animals received a reference compound (Carrageenan test: 10 mg/kg indomethacin; Formalin test: 10 mg/kg morphine). Each compound was tested in a separate experiment and each experiment included a control and a reference group. 10 rats per group were used in the Carrageenan test and 6 mice per group in the formalin test.

The subject of assay [2] is neuropathic pain (CHUNG), tactile stimulation. The assay is described as follows: Neuropathic pain (CHUNG) test, tactile stimulation on lesioned paw. The assay is classed as in vivo, rat. The following applies: for FORCE INDUCING PAW-WITHDRAWAL, % change: compared with lesioned control; for FORCE INDUCING PAW-WITHDRAWAL, mean ± s.e.m.: lesioned paw. The text has this:
(§2) The following Tables 8 and 9 show the effects of harkoseride (hereinafter referred tows SPM 927), carbamazepine, levetiracetam, gabapentin and morphine in the neuropathic pain (CHUNG) test in the rat. Eight (8) rats per group were used.

Assay [3] concerns neuropathic pain (CHUNG), thermal stimulation. The assay is described as follows: Neuropathic pain (CHUNG) test, thermal stimulation on lesioned paw. Type of assay: in vivo, rat.
Excerpt: as §2

For assay [4], the system named is formalin-induced nociception (paw licking). Put plainly: Subchronic inflammatory nociception in mice (formalin test). The assay is classed as in vivo. The following applies: for nociceptive threshold, early phase: 0-5 min after formalin (acute pain); for nociceptive threshold, late phase: 20-30 min after formalin (subchronic inflammatory pain). On the procedure:
Subchronic inflammatory nocicpetion in mice was induced by the subplantar injection of formalin (0.02 ml of a 5% solution). Nociceptive behaviour (paw licking) was measured and quantified between 0 and 5 min (acute pain) and between 20 and 30 min (subchronic inflammatory pain) after formalin.
as §1

The mark [5] stands for this setting: 10 mg/kg i.p. 30 min before measurement.
[6] abbreviates: 16 mg/kg i.p. -30 min, compared with lesioned control.
Where [7] appears, read: 16 mg/kg i.p. -30 min, lesioned paw.
[8] abbreviates: 32 mg/kg i.p. -30 min, compared with lesioned control.
Setting [9] is: 32 mg/kg i.p. -30 min, lesioned paw.
Where [10] appears, read: 64 mg/kg i.p. -30 min, compared with lesioned control.
Where [11] appears, read: 64 mg/kg i.p. -30 min, lesioned paw.

Regarding `COc1ccc2c(c1)c(CC(=O)O)c(C)n2C(=O)c1ccc(Cl)cc1` [Indomethacin, indomethacin], the nociceptive threshold in assay [1] (setting [5]) is 370 ± 15^b and 384 ± 11^b.

As for `NC(=O)N1c2ccccc2C=Cc2ccccc21` [Carbamazepine, carbamazepine], the entries for the “FORCE INDUCING PAW-WITHDRAWAL, % change” value in assay [2] (16 mg/kg i.p. -30 min), in assay [2] (32 mg/kg i.p. -30 min) and in assay [2] (64 mg/kg i.p. -30 min) were “+21% (b)”, “+121% (b)” and “+125% (b)”, respectively. Also, the “FORCE INDUCING PAW-WITHDRAWAL, mean ± s.e.m.” value in assay [2] (16 mg/kg i.p. -30 min) is reported as 21.0 ± 2.3 NS (b) g; in assay [2] (32 mg/kg i.p. -30 min), 38.4 ± 8.1 (b) g; in assay [2] (64 mg/kg i.p. -30 min), 39.2 ± 9.1 (b) g. Besides, the “PAW-WITHDRAWAL LATENCY, % change” value in assay [3] (setting [6]) is “+118% (b)”; in assay [3] (setting [8]), “+39% (b)”; in assay [3] (setting [10]) it was “+77% (b)”. Moreover, the results for the “PAW-WITHDRAWAL LATENCY, mean ± s.e.m.” value in assay [3] (setting [7]), in assay [3] (setting [9]) and in assay [3] (setting [11]) were 35.6 ± 4.1 (b) sec, 22.7 ± 4.3 NS (b) sec and 28.8 ± 6.9 NS (b) sec, respectively.

Consider `CC[C@@H](C(N)=O)N1CCCC1=O` [Levetiracetam, levetiracetam], for which the “FORCE INDUCING PAW-WITHDRAWAL, % change” value was “+32% (b)” in assay [2] (16 mg/kg i.p. -30 min), “+44% (b)” in assay [2] (32 mg/kg i.p. -30 min) and “+14% (b)” in assay [2] (64 mg/kg i.p. -30 min). Moreover, the results for the “FORCE INDUCING PAW-WITHDRAWAL, mean ± s.e.m.” value in assay [2] (16 mg/kg i.p. -30 min), in assay [2] (32 mg/kg i.p. -30 min) and in assay [2] (64 mg/kg i.p. -30 min) were 23.0 ± 4.0 NS (b) g, 25.0 ± 5.2 NS (b) g and 19.8 ± 4.1 NS (b) g, respectively. Further, the “PAW-WITHDRAWAL LATENCY, % change” value in assay [3] (setting [6]) was “+17% (b)”; in assay [3] (setting [8]) it was “+5% (b)”; in assay [3] (setting [10]), “+63% (b)”. The “PAW-WITHDRAWAL LATENCY, mean ± s.e.m.” value in assay [3] (setting [7]) is 19.0 ± 3.6 NS (b) sec; in assay [3] (setting [9]) it was 17.1 ± 2.9 NS (b) sec; in assay [3] (setting [11]), 26.6 ± 6.0 NS (b) sec.

For `CN1CC[C@]23c4c5ccc(O)c4O[C@H]2[C@@H](O)C=C[C@H]3[C@H]1C5` [Morphine, morphine], in assay [2] (16 mg/kg i.p. -30 min), the “FORCE INDUCING PAW-WITHDRAWAL, % change” value is reported as “+164% (b)” and the “FORCE INDUCING PAW-WITHDRAWAL, mean ± s.e.m.” value is listed as 45.9 ± 8.8 (b) g. Moreover, the “nociceptive threshold, early phase” value in assay [4] (10 mg/kg i.p.) is 8 ± 6^a s and 6 ± 3^a s. Further, the “PAW-[…], % change” value in assay [3] (setting [6]) is reported as “+160% (b)”. Besides, the “PAW-[…], mean ± s.e.m.” value in assay [3] (setting [7]) is listed as 42.4 ± 1.9 (b) sec.

With `NCC1(CC(=O)O)CCCCC1` [GBP, gabapentin], the results for the “FORCE INDUCING PAW-WITHDRAWAL, % change” value in assay [2] (32 mg/kg i.p. -30 min), in assay [2] (64 mg/kg i.p. -30 min) and in assay [2] (128 mg/kg i.p. -30 min) were −1% (b), “+35% (b)” and “+93% (b)”, respectively. Moreover, the “FORCE INDUCING PAW-WITHDRAWAL, mean ± s.e.m.” value in assay [2] (32 mg/kg i.p. -30 min) is given as 17.2 ± 3.0 NS (b) g; in assay [2] (64 mg/kg i.p. -30 min), 23.5 ± 4.2 NS (b) g; in assay [2] (128 mg/kg i.p. -30 min), 33.6 ± 6.7 (b) g. The nociceptive threshold in assay [1] (setting [5]) turned out to be 254 ± 39; in assay [1] (20 mg/kg i.p. 30 min before measurement) it was 296 ± 31; in assay [1] (40 mg/kg i.p. 30 min before measurement), 282 ± 33. Besides, the “effect on Carrageenan-induced mechanical hyperalgesia (in words)” value in assay [1] (10, 20, 40 mg/kg i.p.) is listed as “no significant effect”. The figures for the “nociceptive threshold, early phase” value in assay [4] (10 mg/kg i.p.), in assay [4] (20 mg/kg i.p.) and in assay [4] (40 mg/kg i.p.) were 98 ± 20 s, 102 ± 17 s and 72 ± 10 s, respectively. Also, the “nociceptive threshold, late phase” value in assay [4] (10 mg/kg i.p.) turned out to be 133 ± 30 s; in assay [4] (20 mg/kg i.p.), 118 ± 13 s; in assay [4] (40 mg/kg i.p.) it was 73 ± 13 s. In assay [4] (10, 20, 40 mg/kg i.p.), the “effect on formalin-induced nociceptive response (in words)” value was “slightly but not significantly inhibited”. The “PAW-WITHDRAWAL LATENCY, % change” value was “+18% (b)” in assay [3] (setting [8]); “+75% (b)” in assay [3] (setting [10]); “+66% (b)” in assay [3] (128 mg/kg i.p. -30 min, compared with lesioned control). In addition, the “PAW-WITHDRAWAL LATENCY, mean ± s.e.m.” value in assay [3] (setting [9]) is 19.3 ± 3.6 NS (b) sec; in assay [3] (setting [11]), 28.5 ± 5.4 NS (b) sec; in assay [3] (128 mg/kg i.p. -30 min, lesioned paw), 27.1 ± 5.2 NS (b) sec.
